Like-named read-outs stand apart in the source and are kept apart here.
Experiments:
[1] = target: Mpro/3CL protease of SARS-CoV-2 (Severe acute respiratory syndrome coronavirus 2 (2019-nCoV) (SARS-CoV-2), UniProt P0DTD1); assay: Mpro/3CL protease enzyme inhibitory activity, FRET assay kit; format: biochemical; details: fluorogenic substrate, 25° C.
[2] = test system: SARS-CoV-2WK-521; assay: microbe, parasite or virus in culture; format: cell-based; details: for times more excellent EC50 value as compared with PF-7321332: ratio of EC50 values; for times more excellent EC99 value as compared with PF-7321332: ratio of EC99 values
[3] = Cytotoxicity test, MTT assay; format: cell-based; details: African green monkey, Vero E6 cells
Procedure: (§1) The cytotoxicity test of the test compounds was conducted using Vero E6 cells. Specifically, Vero E6 cells were inoculated in a 96 well plate to be 1×10^4 cells/well, and cultured under standard culture conditions of 3 days, 37° C., and 5% CO2 together with media supplemented with each test compound of each concentration after serial dilution. Thereafter, the viable cell count of each well was quantified by MTT assay to calculate 50% cytotoxicity concentration (CC50).

[4] = in vivo; details: mouse, 2 mg/kg; for half-life: iv; for bioavailability: po, bioavailability (BA)
[5] = test system: Vero E6 cells; assay: Cytotoxicity test, MTT assay; format: cell-based; details: 3 days
Procedure: as §1

[6] = Severe acute respiratory syndrome coronavirus 2, Vero C1008, 72 h, Vero E6 cells, MOI 0.05, 3 days, read-out: EC50
[7] = Vero E6 cells, MOI 0.05, 3 days
[8] = Severe acute respiratory syndrome coronavirus 2, Vero C1008, 72 h, read-out: EC50

| Structure (SMILES) | CC50 at 3 days [3] [µM] | EC99 [2] [µM] | EC50 ([2]; read-out: EC50) [µM] | CC50 [5] [µM] | further results |
| --- | --- | --- | --- | --- | --- |
| CC1(C)[C@@H]2[C@@H](C(=O)N[C@@H](C[C@@H]3CCNC3=O)C(=O)c3nc4c(F)cccc4s3)N(C(=O)c3cc4c(F)ccc(F)c4[nH]3)C[C@@H]21 [Compound 243, (1R,2S,5S)-3-(4,7-difluoro-1H-indole-2-carbonyl)-N-((S)-1-(4-fluorobenzo[d]thiazol-2-yl)-1-oxo-3-((S)-2-oxopyrrolidin-3-yl)propan-2-yl)-6,6-dimethyl-3-azabicyclo[3.1.0]hexane-2-carboxamide] | > 100 |  |  |  | IC50 [1]: 0.8 µM; EC50 [2, 6]: 0.75 µM; EC99 [2, 7]: 9.4 µM |
| COc1ccc(F)c2[nH]c(C(=O)N3C[C@H]4[C@@H]([C@H]3C(=O)N[C@@H](C[C@@H]3CCNC3=O)C(=O)c3nc5c(F)cccc5s3)C4(C)C)cc12 [Compound 244, (1R,2S,5S)-3-(7-fluoro-4-methoxy-1H-indole-2-carbonyl)-N-((S)-1-(4-fluorobenzo[d]thiazol-2-yl)-1-oxo-3-((S)-2-oxopyrrolidin-3-yl)propan-2-yl)-6,6-dimethyl-3-azabicyclo[3.1.0]hexane-2-carboxamide] | > 100 |  |  |  | IC50 [1]: 0.6 µM; EC50 [2, 6]: 0.6 µM; EC99 [2, 7]: 0.99 µM |
| CC(C)(C)[C@H](NC(=O)C(F)(F)F)C(=O)N1C[C@H]2[C@@H]([C@H]1C(=O)N[C@@H](C[C@@H]1CCNC1=O)C(=O)c1nc3c(F)cccc3s1)C2(C)C [Compound 245, (1R,2S,5S)-3-((S)-3,3-dimethyl-2-(2,2,2-trifluoroacetamido)butanoyl)-N-((S)-1-(4-fluorobenzo[d]thiazol-2-yl)-1-oxo-3-((S)-2-oxopyrrolidin-3-yl)propan-2-yl)-6,6-dimethyl-3-azabicyclo[3.1.0]hexane-2-carboxamide] | > 100 | 0.95 |  |  | EC75 [2]: 0.29 µM; EC50 [2, 8]: 0.08 µM; suppression of proliferation of SARS-CoV-2 ([2]; concentration of 1 μM): almost completely suppressed; times more excellent EC50 value as compared with PF-7321332 [2]: ≥ 20 times; times more excellent EC99 value as compared with PF-7321332 [2]: about 10 times; half-life [4]: ≥ 45 min; bioavailability [4]: ≥ 31%; bioavailability ([4]; same experiment conducted again, mice, 2 mg/kg P.O. vs I.V., calculated from AUC of FIG. 2): 47.7% |
| CC(C)(C)[C@H](NC(=O)C(F)(F)F)C(=O)N1C[C@H]2[C@@H](C1C(=S)N[C@@H](C[C@@H]1CCNC1=O)C(=O)c1nc3c(F)cccc3s1)C2(C)C (stereo partly drawn) [Compound 245s, 2,2,2-trifluoro-N-((S)-1-((1R,2S,5S)-2-(((S)-1-(4-fluorobenzo[d]thiazol-2-yl)-1-oxo-3-((S)-2-oxopyrrolidin-3-yl)propan-2-yl)carbamothioyl)-6,6-dimethyl-3-azabicyclo[3.1 0.0]hexan-3-yl)-3,3-dimethyl-1-oxobutan-2-yl)acetamide] |  |  |  |  | EC75 [2, 7]: 0.55 µM; EC99 [2, 7]: 0.98 µM; times more excellent EC99 value as compared with PF-7321332 [2]: about 10 times |
| CC(C)(C)[C@H](NC(=O)C(F)(F)F)C(=O)N1C[C@H]2[C@@H]([C@H]1C(=S)N[C@@H](C[C@@H]1CCNC1=O)C(=O)c1nc3c(F)cccc3s1)C2(C)C [Compound 245s, 2,2,2-trifluoro-N-((S)-1-((1R,2S,5S)-2-(((S)-1-(4-fluorobenzo[d]thiazol-2-yl)-1-oxo-3-((S)-2-oxopyrrolidin-3-yl)propan-2-yl)carbamothioyl)-6,6-dimethyl-3-azabicyclo[3.1 0.0]hexan-3-yl)-3,3-dimethyl-1-oxobutan-2-yl)acetamide] | > 100 |  |  |  | IC50 [1]: 0.3 µM; EC50 [2, 6]: 0.31 µM; times more excellent EC50 value as compared with PF-7321332 [2]: ≥ 6 times |
| CC(C)(C)[C@H](NC(=O)C(F)(F)F)C(=O)N1C[C@H]2[C@@H]([C@H]1C(=O)N[C@@H](C[C@@H]1CCNC1=O)C(=O)c1nc3c(F)ccc(F)c3s1)C2(C)C [Compound 247] |  | <1.0 | < 0.2 | > 100 |  |
| CC(C)(C)[C@H](NC(=O)C(F)(F)F)C(=O)N1C[C@H]2[C@@H]([C@H]1C(=S)N[C@@H](C[C@@H]1CCNC1=O)C(=O)c1nc3c(F)ccc(F)c3s1)C2(C)C [Compound 247s] |  | <1.0 | < 0.3 | > 100 |  |
| CC1(C)[C@@H]2[C@@H](C(=O)N[C@@H](C[C@@H]3CCNC3=O)C(=O)c3nc4c(F)cccc4s3)N(C(=O)[C@H](CC(F)(F)F)NC(=O)C(F)(F)F)C[C@@H]21 [Compound 248] |  | <1.0 | < 0.2 | > 100 |  |
| CC1(C)[C@@H]2[C@@H](C(=S)N[C@@H](C[C@@H]3CCNC3=O)C(=O)c3nc4c(F)cccc4s3)N(C(=O)[C@H](CC(F)(F)F)NC(=O)C(F)(F)F)C[C@@H]21 [Compound 248s] |  | <1.0 | < 0.3 | > 100 |  |
| CC1(C)[C@@H]2[C@@H](C(=O)N[C@@H](C[C@@H]3CCNC3=O)C(=O)c3nc4c(F)cccc4s3)N(C(=O)[C@H](CCC(F)(F)F)NC(=O)C(F)(F)F)C[C@@H]21 [Compound 249] |  | <1.0 | < 0.2 | > 100 |  |
| CC1(C)[C@@H]2[C@@H](C(=S)N[C@@H](C[C@@H]3CCNC3=O)C(=O)c3nc4c(F)cccc4s3)N(C(=O)[C@H](CCC(F)(F)F)NC(=O)C(F)(F)F)C[C@@H]21 [Compound 249s] |  | <1.0 | < 0.3 | > 100 |  |
| CC(C)(F)[C@H](NC(=O)C(F)(F)F)C(=O)N1C[C@H]2[C@@H]([C@H]1C(=O)N[C@@H](C[C@@H]1CCNC1=O)C(=O)c1nc3c(F)cccc3s1)C2(C)C [Compound 250] |  | <1.0 | < 0.2 | > 100 |  |
| CC(C)(F)[C@H](NC(=O)C(F)(F)F)C(=O)N1C[C@H]2[C@@H]([C@H]1C(=S)N[C@@H](C[C@@H]1CCNC1=O)C(=O)c1nc3c(F)cccc3s1)C2(C)C [Compound 250s] |  | <1.0 | < 0.3 | > 100 |  |
| CC(C)(F)[C@H](NC(=O)C(F)(F)F)C(=O)N1C[C@H]2[C@@H]([C@H]1C(=O)N[C@@H](C[C@@H]1CCNC1=O)C(=O)c1nc3c(F)ccc(F)c3s1)C2(C)C [Compound 251] |  | <1.0 | < 0.2 | > 100 |  |
| CC(C)(F)[C@H](NC(=O)C(F)(F)F)C(=O)N1C[C@H]2[C@@H]([C@H]1C(=S)N[C@@H](C[C@@H]1CCNC1=O)C(=O)c1nc3c(F)ccc(F)c3s1)C2(C)C [Compound 251s] |  | <1.0 | < 0.3 | > 100 |  |
| CC(C)(C)[C@H](NC(=O)C(F)(F)F)C(=O)N1C[C@H]2[C@@H]([C@H]1C(=O)N[C@@H](C[C@@H]1CCNC1=O)C(=O)c1nc3cc(F)ccc3s1)C2(C)C [Compound 272, (1R,2S,5S)-3-((S)-3,3-dimethyl-2-(2,2,2-trifluoroacetamido)butanoyl)-N-((S)-1-(5-fluorobenzo[d]thiazol-2-yl)-1-oxo-3-((S)-2-oxopyrrolidin-3-yl)propan-2-yl)-6,6-dimethyl-3-azabicyclo[3.1.0]hexane-2-carboxamide] | > 80 |  |  |  | EC50 [2, 8]: 0.008 µM; bioavailability [4]: 99.3% |
| CC(C)(C)[C@H](NC(=O)C(F)(F)F)C(=O)N1C[C@H]2[C@@H]([C@H]1C(=O)N[C@@H](C[C@@H]1CCNC1=O)C(=O)c1nc3ccc(F)cc3s1)C2(C)C [Compound 273, (1R,2S,5S)-3-((S)-3,3-dimethyl-2-(2,2,2-trifluoroacetamido)butanoyl)-N-((S)-1-(6-fluorobenzo[d]thiazol-2-yl)-1-oxo-3-((S)-2-oxopyrrolidin-3-yl)propan-2-yl)-6,6-dimethyl-3-azabicyclo[3.1.0]hexane-2-carboxamide] | > 80 |  |  |  | EC50 [2, 8]: 0.052 µM |
| COc1cccc2[nH]c(C(=O)N[C@@H](CC(C)C)C(=O)N[C@@H](C[C@@H]3CCNC3=O)C(=O)c3nc4ccccc4s3)cc12 [Compound 2420, reference compound] |  |  |  |  | EC50 ([2]; Severe acute respiratory syndrome coronavirus 2, Vero C1008, 72 h): 2.7 to 3.2 µM; half-life [4]: ~10 min |
| CC(C)(C)[C@H](NC(=O)C(F)(F)F)C(=O)N1C[C@H]2[C@@H]([C@H]1C(=O)N[C@H](C#N)C[C@@H]1CCNC1=O)C2(C)C [PF-7321332, reference compound] | > 100 |  |  |  | EC50 [2, 6]: 1.9 µM; EC75 [2, 7]: 4.39 µM; EC99 [2, 7]: 9.68 µM |

From patent US20240246951A1, “COMPOUND HAVING BIOLOGICAL ACTIVITY SUCH AS ANTIVIRAL ACTIVITY” (NATIONAL CENTER FOR GLOBAL HEALTH AND MEDICINE, priority 2021, published 2024)
